Patent US7435837B2, “Dihydrobenzofuranyl alkanamine derivatives and methods for using same” (Wyeth, priority 2003, dated 2008)

Tests used:
human 5-HT2C receptor = molecular target: T1, human 5-HT2C receptor (Homo sapiens, UniProt P28335); test: 5-HT2C receptor-stimulated calcium mobilization (FLIPR) in CHO cells; format: cell-based; conditions: for Emax: CHO, read-out: 5-HT2C Function Emax (%); for Emax / 5-HT2C Function Emax (%): percentage of the response observed with a maximally effective concentration of 5-HT; for EC50: calcium mobilization, CHO cells stably expressing human 5-HT2C, read-out: 5-HT2C Function EC50;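 as to all read-outs here: Fluo-3-AM fluorescence read on FLIPR every 1 s, agonist added after 10 baseline reads, response taken as peak minus lowest raw fluorescence count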
T1 sequence (P28335 33-458): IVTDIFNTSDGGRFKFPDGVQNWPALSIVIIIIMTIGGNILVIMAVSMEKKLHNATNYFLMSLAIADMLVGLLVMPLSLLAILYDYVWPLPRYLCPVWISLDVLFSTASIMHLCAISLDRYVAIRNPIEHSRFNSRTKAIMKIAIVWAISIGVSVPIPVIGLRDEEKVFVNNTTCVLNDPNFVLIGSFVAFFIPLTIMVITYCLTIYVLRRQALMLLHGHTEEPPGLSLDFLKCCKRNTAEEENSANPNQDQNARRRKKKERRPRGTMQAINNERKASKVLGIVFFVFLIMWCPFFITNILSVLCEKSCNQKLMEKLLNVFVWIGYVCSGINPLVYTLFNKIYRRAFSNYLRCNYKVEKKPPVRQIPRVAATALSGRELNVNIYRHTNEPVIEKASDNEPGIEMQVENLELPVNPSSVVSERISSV

[1] = molecular target: T2, human 5-hydroxytryptamine-2C (h5-HT2C) receptor (Homo sapiens, UniProt P28335); test: [125I]DOI binding to membranes of CHO cells expressing the human 5-HT2C receptor; conditions: [125I]DOI radioligand, CHO cell membranes, room temperature 60 min; read-out: 5-HT2C Affinity Ki
T2 construct: expressed in transfected cells; host or cells: CHO (Chinese Hamster Ovary) cells; membranes
T2 sequence (P28335 33-458): T1 sequence (P28335 33-458)

Compound	Emax (human 5-HT2C receptor)	EC50 (human 5-HT2C receptor)	Ki [1]	5-HT2C Function Emax (%) (human 5-HT2C receptor)
NCC1Cc2cc(Cl)cc(-c3cccc(F)c3F)c2O1 (racemic) [Example 244, (±)-{[5-chloro-7-(2,3-difluorophenyl)-2,3-dihydro-1-benzofuran-2-yl]methyl}amine]	90%	52 nM	0.74 nM	–
NCC1Cc2cccc(C3CCCC3)c2O1 (single isomer, unassigned; (-)) [Example 9, (−)-(7-cyclopentyl-2,3-dihydro-1-benzofuran-2-yl)methylamine]	–	194 nM	10 nM	85%
NCC1Cc2cccc(-c3ccc(Cl)cc3Cl)c2O1 (racemic) [Example 83, (±)-1-[7-(2,4-dichlorophenyl)-2,3-dihydro-1-benzofuran-2-yl]methanamine]	100%	7.9 nM	1 nM	–
NCC1Cc2cc(F)cc(-c3ccoc3)c2O1 (racemic) [Example 204, (±)-{[5-fluoro-7-(3-furyl)-2,3-dihydro-1-benzofuran-2-yl]methyl}amine]	90%	336 nM	1.3 nM	–
NCC1Cc2cc(Cl)cc(-c3cccc(Cl)c3Cl)c2O1 (racemic) [Example 247, (±)-{[5-chloro-7-(2,3-dichlorophenyl)-2,3-dihydro-1-benzofuran-2-yl]methyl}amine]	90%	164 nM	15 nM	–
CC(C)c1cccc2c1OC(CN)C2 (single isomer, unassigned; (+)) [Example 20, (+)-(7-isopropyl-2,3-dihydro-1-benzofuran-2-yl)methylamine]	–	178 nM	24 nM	70%
COc1ccc(-c2cccc3c2OC(CN)C3)c(OC)c1 (single isomer, unassigned; (-)) [Example 144, (−)-1-[7-(2,4-dimethoxyphenyl)-2,3-dihydro-1-benzofuran-2-yl]methanamine]	90%	4 nM	6.1 nM	–
NCC1Cc2cc(F)cc(-c3c(Cl)cccc3Cl)c2O1 (racemic) [Example 230, (±)-{[7-(2,6-dichlorophenyl)-5-fluoro-2,3-dihydro-1-benzofuran-2-yl]methyl}amine]	90%	48 nM	0.6 nM	–
Cc1cc(Cl)ccc1-c1cccc2c1OC(CN)C2 (racemic) [Example 167, (±)-{[7-(4-chloro-2-methylphenyl)-2,3-dihydro-1-benzofuran-2-yl]methyl}amine]	90%	21 nM	3.1 nM	–
NCC1Cc2cccc(Cc3ccccc3)c2O1 (single isomer, unassigned; (-)) [Example 17, (−)-1-(7-benzyl-2,3-dihydro-1-benzofuran-2-yl)methanamine]	–	100 nM	66 nM	70%
NCC1Cc2cccc(-c3ccccc3)c2O1 (single isomer, unassigned; (+)) [Example 37]	100%	1 nM	1 nM	–
NCC1Cc2cccc(Cc3ccccc3)c2O1 (single isomer, unassigned; (+)) [Example 16, (+)-1-(7-benzyl-2,3-dihydro-1-benzofuran-2-yl)methanamine]	65%	451 nM	274 nM	–
COc1cccc(-c2cc(F)cc3c2OC(CN)C3)c1OC (racemic) [Example 212, (±)-{[7-(2,3-dimethoxyphenyl)-5-fluoro-2,3-dihydro-1-benzofuran-2-yl]methyl}amine]	90%	11 nM	2.4 nM	–
Cc1ccccc1-c1cc(Cl)cc2c1OC(CN)C2 (single isomer, unassigned; (+)) [Example 96, (+)-1-[5-chloro-7-(2-methylphenyl)-2,3-dihydro-1-benzofuran-2-yl]methanamine]	–	27 nM	1 nM	100%
Cc1cccc(-c2cccc3c2OC(CN)C3)c1 (single isomer, unassigned; (-)) [Example 43, (−)-1-[7-(3-methylphenyl)-2,3-dihydro-1-benzofuran-2-yl]methanamine]	–	748 nM	100 nM	80%
Cc1cccc(C)c1-c1cccc2c1OC(CN)C2 (racemic) [Example 56, (±)-1-[7-(2,6-dimethylphenyl)-2,3-dihydro-1-benzofuran-2-yl]methanamine]	100%	60 nM	1 nM	–
NCC1Cc2cc(Cl)cc(-c3ccccc3F)c2O1 (racemic) [Example 241, (±)-{[5-chloro-7-(2-fluorophenyl)-2,3-dihydro-1-benzofuran-2-yl]methyl}amine]	90%	29 nM	0.3 nM	–
NCC1Cc2cc(Cl)cc(-c3cccc(F)c3F)c2O1 (single isomer, unassigned) [Example 246, (±)-{[5-chloro-7-(2,3-difluorophenyl)-2,3-dihydro-1-benzofuran-2-yl]methyl}amine]	–	1490 nM	23 nM	–

More lines, now with the values ahead:

Emax (human 5-HT2C receptor)	EC50 (human 5-HT2C receptor)	Ki [1]	5-HT2C Function Emax (%) (human 5-HT2C receptor)	Compound
100%	3 nM	0.06 nM	–	CNCC1Cc2cc(C)cc(-c3cc(Cl)ccc3Cl)c2O1 (single isomer, unassigned; (+)) [Example 487, (+)-{[7-(2,5-dichlorophenyl)-5-methyl-2,3-dihydro-1-benzofuran-2-yl]methyl}methylamine]
90%	19 nM	25 nM	–	NCC1Cc2cc(C(F)(F)F)cc(-c3ccccc3Cl)c2O1 (racemic) [Example 315, (±)-{[5-(trifluoromethyl)-7-(2-chlorophenyl)-2,3-dihydro-1-benzofuran-2-yl]methyl}amine]
–	0.1 nM	0.19 nM	100%	Cc1cc2c(c(-c3ccc(Cl)cc3Cl)c1)OC(CN)C2 (single isomer, unassigned; (+)) [Example 299, (+)-{[7-(2,4-dichlorophenyl)-5-methyl-2,3-dihydro-1-benzofuran-2-yl]methyl}amine]
90%	6 nM	0.45 nM	–	CNCC1Cc2cc(F)cc(-c3ccccc3Cl)c2O1 (racemic) [Example 439, (±)-{[5-fluoro-7-(2-chlorophenyl)-2,3-dihydro-1-benzofuran-2-yl]methyl}methylamine]
90%	0.05 nM	0.08 nM	–	CNCC1Cc2cccc(-c3ccccc3Cl)c2O1 (single isomer, unassigned; (+)) [Example 410, (+)-N-methyl-1-[7-(2-chlorophenyl)-2,3-dihydro-1-benzofuran-2-yl]methanamine]
80%	590 nM	28 nM	–	NCC1Cc2cc(C(F)(F)F)cc(-c3ccsc3)c2O1 (racemic) [Example 342, (±)-{[7-thien-3-yl-5-(trifluoromethyl)-2,3-dihydro-1-benzofuran-2-yl]methyl}amine]
90%	123 nM	45 nM	–	NCC1Cc2cc(C(F)(F)F)cc(-c3cc(F)ccc3F)c2O1 (racemic) [Example 336, (±)-{[7-(2,5-difluorophenyl)-5-(trifluoromethyl)-2,3-dihydro-1-benzofuran-2-yl]methyl}amine]
100%	19 nM	0.6 nM	–	COc1cc2c(c(-c3c(C)cccc3C)c1)OC(CN)C2 (racemic) [Example 374, (±)-{[7-(2,6-dimethylphenyl)-5-methoxy-2,3-dihydro-1-benzofuran-2-yl]methyl}amine]
60%	45 nM	21.5 nM	–	CC(C)NCC1Cc2cccc(-c3c(Cl)cccc3Cl)c2O1 (racemic) [Example 393, (±)-N-{[7-(2,6-dichlorophenyl)-2,3-dihydro-1-benzofuran-2-yl]methyl}propan-2-amine]
90%	63 nM	25 nM	–	Cc1ccccc1-c1cc(C#N)cc2c1OC(CN)C2 (racemic) [Example 311, (±)-2-(aminomethyl)-7-(2-methylphenyl)-2,3-dihydro-1-benzofuran-5-carbonitrile]
90%	25 nM	15 nM	–	N#Cc1cc2c(c(-c3ccccc3Cl)c1)OC(CN)C2 (racemic) [Example 312, (±)-2-(aminomethyl)-7-(2-chlorophenyl)-2,3-dihydro-1-benzofuran-5-carbonitrile]
–	137 nM	0.31 nM	80%	CNCC1Cc2cc(F)cc(-c3cc(Cl)ccc3Cl)c2O1 (single isomer, unassigned; (-)) [Example 451, (−)-{[5-fluoro-7-(2,5-dichlorophenyl)-2,3-dihydro-1-benzofuran-2-yl]methyl}methylamine]
92%	16 nM	2.8 nM	–	CNCC1Cc2cccc(-c3cc(Cl)ccc3Cl)c2O1 (racemic) [Example 429, (±)-[(N-methyl-1-[7-(2,5-dichlorophenyl)-2,3-dihydro-1-benzofuran-2-yl]methanamine]
80%	271 nM	38 nM	–	COc1cccc(-c2cc(C(F)(F)F)cc3c2OC(CN)C3)c1OC (racemic) [Example 331, (±)-{[7-(2,3-dimethoxyphenyl)-5-(trifluoromethyl)-2,3-dihydro-1-benzofuran-2-yl]methyl}amine]
